US9556135B2, “Amino-dihydrothiazine and amino-dioxido dihydrothiazine compounds as beta-secretase antagonists and methods of use” (Amgen Inc., priority 2012, dated 2017)

Test system: Abeta 40
Assay: In vivo inhibition of beta-secretase: Abeta 40 reduction in CSF and brain of the rat
Conditions: 10 mpk (unless otherwise noted), after 4 hrs
Description: In Vivo Inhibition of Beta-Secretase
Several animal models, including mouse, rat, dog, and monkey, may be used to screen for inhibition of beta-secretase activity in vivo following administration of a test compound sample. Animals used in this invention can be wild type, transgenic, or gene knockout animals. […] One to twenty-four hours following the administration of compound, animals are sacrificed, and brains as well as cerebrospinal fluid (CSF) and plasma are removed for analysis of A-beta levels and drug or test compound concentrations (Dovey et al., 2001, Journal of Neurochemistry, 76, 173-181) Beginning at time 0, animals are administered by oral gavage, or other means of delivery such as intravenous injection, an inhibitory test compound of up to 100 mg/kg in a standard, conventional formulation, such as 2% hydroxypropyl methylcellulose, 1% Tween80. A separate group of animals receive 2% hydroxypropyl methylcellulose, 1% Tween80 alone, containing no test compound, and serve as a vehicle-control group. At the end of the test period, animals are sacrificed and brain tissues, plasma or cerebrospinal fluid are collected. Brains are either homogenized in 10 volumes (w/v) of 0.2% diethylamine (DEA) in 50 mM NaCl (Best et al., 2005, Journal of Pharmacology and Experimental Therapeutics, 313, 902-908), or in 10 volumes of 0.5% TritonX-100 in Tris-buffered saline (pH at about 7.6). Homogenates are centrifuged at 355,000 g, 4° C. for 30 minutes. CSF or brain supernatants are then analyzed for the presence of A-beta peptide by specific sandwich ELISA assays based on ECL (Electrochemiluminescence) technology. For example, rat Abeta40 is measured using biotinylated-4G8 (Signet) as a capture antibody and Fab40 (an in-house antibody specific to the C-terminal of Abeta40) as a detection antibody.
Actual vehicles used: Oral: 2% HPMC, 1% Tween80, pH 2.2

SMILES	% reduction of rat CSF levels at 10 pmk [%]	% reduction of rat brain levels at 10 mpk [%]
CC1(C)C(N)=N[C@](C)(c2cc(Nc3ncnc4cc(Cl)cnc34)ccc2F)C(F)S1(=O)=O (stereo partly drawn) [Example 228, N-(3-((3R)-5-amino-2-fluoro-3,6,6-trimethyl-1,1-dioxido-3,6-dihydro-2H-1,4-thiazin-3-yl)-4-fluorophenyl)-7-chloropyrido[3,2-d]pyrimidin-4-amine]	67	58
CC1(C)C(N)=N[C@](C)(c2cc(Nc3ncnc4cc(C#N)cnc34)ccc2F)C(F)S1(=O)=O (stereo partly drawn) [Example 229, 4-((3-((3R)-5-amino-2-fluoro-3,6,6-trimethyl-1,1-dioxido-3,6-dihydro-2H-1,4-thiazin-3-yl)-4-fluorophenyl)amino)pyrido[3,2-d]pyrimidine-7-carbonitrile]	61	43
CC1(C)C(N)=N[C@](CF)(c2cc(Nc3ncc(F)c4cc(Cl)cnc34)ccc2F)CS1(=O)=O [Example 233, N-(3-((3S)-5-amino-3-(fluoromethyl)-6,6-dimethyl-1,1-dioxido-3,6-dihydro-2H-1,4-thiazin-3-yl)-4-fluorophenyl)-3-chloro-5-fluoro-1,7-naphthyridin-8-amine]	25	0
CC1(C)C(N)=N[C@](CF)(c2cc(Nc3ncnc4cc(Cl)cnc34)ccc2F)CS1(=O)=O [Example 235, N-(3-((3S)-5-amino-3-(fluoromethyl)-6,6-dimethyl-1,1-dioxido-3,6-dihydro-2H-1,4-thiazin-3-yl)-4-fluorophenyl)-7-chloropyrido[3,2-d]pyrimidin-4-amine]	38	14
CC1(C)C(N)=N[C@](CF)(c2cc(Nc3ncnc4cc(C#N)cnc34)ccc2F)CS1(=O)=O [Example 236, 4-((3-((3S)-5-amino-3-(fluoromethyl)-6,6-dimethyl-1,1-dioxido-3,6-dihydro-2H-1,4-thiazin-3-yl)-4-fluorophenyl)amino)pyrido[3,2-d]pyrimidine-7-carbonitrile]	35	1
CC#CCOc1cnc(C(=O)Nc2ccc(F)c([C@]3(C)CS(=O)(=O)[C@@](C)(F)C(N)=N3)c2)cn1 [Example 317, N-(3-((3R,6R)-5-amino-6-fluoro-3,6-dimethyl-1,1-dioxido-3,6-dihydro-2H-1,4-thiazin-3-yl)-4-fluorophenyl)-5-(2-butyn-1-yloxy)-2-pyrazinecarboxamide]	23	0
Cc1cc(OC(F)F)cnc1C(=O)Nc1ccc(F)c([C@]2(C)CS(=O)(=O)[C@@](C)(F)C(N)=N2)c1 [Example 321, N-(3-((3R,6R)-5-amino-6-fluoro-3,6-dimethyl-1,1-dioxido-3,6-dihydro-2H-1,4-thiazin-3-yl)-4-fluorophenyl)-5-(difluoromethoxy)-3-methyl-2-pyridinecarboxamide]	44	37
Cc1cc(C#N)cnc1C(=O)Nc1ccc(F)c([C@]2(C)CS(=O)(=O)[C@@](C)(F)C(N)=N2)c1 [Example 324, N-(3-((3R,6R)-5-amino-6-fluoro-3,6-dimethyl-1,1-dioxido-3,6-dihydro-2H-1,4-thiazin-3-yl)-4-fluorophenyl)-5-cyano-3-methyl-2-pyridinecarboxamide]	44	29
CC1(C)C(N)=N[C@](C)(c2cc(NC(=O)c3ncc(Cl)cc3F)ccc2F)C(F)S1(=O)=O (stereo partly drawn) [Example 329, N-(3-((3R)-5-amino-2-fluoro-3,6,6-trimethyl-1,1-dioxido-3,6-dihydro-2H-1,4-thiazin-3-yl)-4-fluorophenyl)-5-chloro-3-fluoro-2-pyridinecarboxamide]	27	20
Cc1cc(OC(F)F)cnc1C(=O)Nc1ccc(F)c([C@@]2(C)N=C(N)C(C)(C)S(=O)(=O)C2F)c1 (stereo partly drawn) [Example 330, N-(3-((3R)-5-amino-2-fluoro-3,6,6-trimethyl-1,1-dioxido-3,6-dihydro-2H-1,4-thiazin-3-yl)-4-fluorophenyl)-5-(difluoromethoxy)-3-methyl-2-pyridinecarboxamide]	78	72
Cc1cc(Cl)cnc1C(=O)Nc1ccc(F)c([C@@]2(C)N=C(N)C(C)(C)S(=O)(=O)C2F)c1 (stereo partly drawn) [Example 331, N-(3-((3R)-5-amino-2-fluoro-3,6,6-trimethyl-1,1-dioxido-3,6-dihydro-2H-1,4-thiazin-3-yl)-4-fluorophenyl)-5-chloro-3-methyl-2-pyridinecarboxamide]	67	59
CC#CCOc1cnc(C(=O)Nc2ccc(F)c([C@@]3(C)N=C(N)C(C)(C)S(=O)(=O)C3F)c2)cn1 (stereo partly drawn) [Example 332, N-(3-((3R)-5-amino-2-fluoro-3,6,6-trimethyl-1,1-dioxido-3,6-dihydro-2H-1,4-thiazin-3-yl)-4-fluorophenyl)-5-(2-butyn-1-yloxy)-2-pyrazinecarboxamide]	24	11
CC1(C)C(N)=N[C@](C)(c2cc(NC(=O)c3cnc(OCC(F)(F)F)cn3)ccc2F)CS1(=O)=O [Example 346, N-(3-((3R)-5-amino-3,6,6-trimethyl-1,1-dioxido-3,6-dihydro-2H-1,4-thiazin-3-yl)-4-fluorophenyl)-5-(2,2,2-trifluoroethoxy)-2-pyrazinecarboxamide]	69	48
Cc1cc(Cl)cnc1C(=O)Nc1cnc(F)c([C@]2(C)CS(=O)(=O)C3(CCC3)C(N)=N2)c1 [Example 359, N-(5-((7R)-9-amino-7-methyl-5,5-dioxido-5-thia-8-azaspiro[3.5]non-8-en-7-yl)-6-fluoro-3-pyridinyl)-5-chloro-3-methyl-2-pyridinecarboxamide]	55	24
COc1cnc(C(=O)Nc2ccc(F)c([C@]3(CF)CS(=O)(=O)C(C)(C)C(N)=N3)c2)c(C)c1 [Example 377, N-(3-((3S)-5-amino-3-(fluoromethyl)-6,6-dimethyl-1,1-dioxido-3,6-dihydro-2H-1,4-thiazin-3-yl)-4-fluorophenyl)-5-methoxy-3-methyl-2-pyridinecarboxamide]	68	53
CC1(C)C(N)=N[C@](CF)(c2cc(Nc3nccc4cc(C#N)cnc34)ccc2F)CS1(=O)=O [Example 387, 8-((3-((3S)-5-amino-3-(fluoromethyl)-6,6-dimethyl-1,1-dioxido-3,6-dihydro-2H-1,4-thiazin-3-yl)-4-fluorophenyl)amino)-1,7-naphthyridine-3-carbonitrile]	43	27
Cc1cc(Cl)cnc1C(=O)Nc1ccc(F)c([C@]2(C)CS(=O)(=O)[C@@](C)(F)C(N)=N2)c1 [Example 388, N-(3-((3R,6R)-5-amino-6-fluoro-3,6-dimethyl-1,1-dioxido-3,6-dihydro-2H-1,4-thiazin-3-yl)-4-fluorophenyl)-5-chloro-3-methyl-2-pyridinecarboxamide]	33	7
CC1(C)C(N)=N[C@](C)(c2cc(NC(=O)c3ccc(Cl)cn3)cnc2F)CS1(=O)=O [Example 398, N-(5-((3R)-5-amino-3,6,6-trimethyl-1,1-dioxido-3,6-dihydro-2H-1,4-thiazin-3-yl)-6-fluoro-3-pyridinyl)-5-chloro-2-pyridinecarboxamide]	63	39
Cc1cc(OC(F)F)cnc1C(=O)Nc1cnc(F)c([C@]2(C)CS(=O)(=O)C(C)(C)C(N)=N2)c1 [Example 400, N-(5-((3R)-5-amino-3,6,6-trimethyl-1,1-dioxido-3,6-dihydro-2H-1,4-thiazin-3-yl)-6-fluoro-3-pyridinyl)-5-(difluoromethoxy)-3-methyl-2-pyridinecarboxamide]	58	25
COc1ccc(C(=O)Nc2cnc(F)c([C@]3(C)CS(=O)(=O)C(C)(C)C(N)=N3)c2)nc1 [Example 401, N-(5-((3R)-5-amino-3,6,6-trimethyl-1,1-dioxido-3,6-dihydro-2H-1,4-thiazin-3-yl)-6-fluoro-3-pyridinyl)-5-methoxy-2-pyridinecarboxamide]	69	48
CC1(C)C(N)=N[C@](C)(c2cc(NC(=O)c3cnc(OCC(F)(F)F)cn3)cnc2F)CS1(=O)=O [Example 402, N-(5-((3R)-5-amino-3,6,6-trimethyl-1,1-dioxido-3,6-dihydro-2H-1,4-thiazin-3-yl)-6-fluoro-3-pyridinyl)-5-(2,2,2-trifluoroethoxy)-2-pyrazinecarboxamide]	43	10
